Assay results published in patent US7595401B2, “Therapeutic compounds and their use in cancer” (Myriad Pharmaceuticals, Inc., priority 2006, dated 2009).

Tested on: purified human Hsp90
Assay: Binding Assay: fluorescence polarization with BODIPY-labeled geldanamycin
Conditions: 5 μM compound, BODIPY-GM 10 nM, Hsp90 30 nM
Description: Compound binding to purified Hsp90 was monitored using BODIPY-labeled geldanamycin (BODIPY-GM) in a fluorescence polarization assay adapted from Kim et al. (Journal of Biomolecular Screening 2004, 9(5):375-381). Compound dilutions (in 100% DMSO) were added to black-bottom 96-well plates (Greiner; 2% DMSO final), and equal volumes of BODIPY-GM (10 nM final) and purified human Hsp90 (Stressgen, SPP-770; 30 nM final) in assay buffer (20 mM HEPES-KOH pH 7.3, 50 mM KCl, 5 mM MgCl2, 20 mM Na2MoO4, 0.01% NP-40, 0.1 mg/mL bovine gamma globulin [Invitrogen, P2045], 2 mM DTT) were added sequentially to yield a final volume of 50 microliters. Plates were incubated overnight at room temperature. Parallel and perpendicular fluorescence measurements were read (LJL BioSystems Analyst AD plate reader) with excitation/emission wavelengths of 485/530 nm. Background fluorescence (buffer only) was subtracted, and fluorescence polarization (FP) values, expressed in mP units, were calculated from parallel and perpendicular fluorescence readings as follows: FP=(parallel−perpendicular)/(parallel+perpendicular)*1000
Percent inhibition was calculated by normalizing the FP values to those obtained in parallel reactions containing DMSO and subtracting these normalized values from 100%. Intrinsic compound fluorescence was independently monitored, and FP data points confounded by compound fluorescence were excluded from the analysis.

`CCOC(=O)[C@@H]1C[C@H](CCn2cnc(N)c3nc(Sc4cc5c(cc4Br)OCO5)nc2-3)CCN1C(=O)OC(C)(C)C` (relative stereo) [Example 423, 1-tert-Butyl 2-ethyl cis-4-(2-{6-amino-8-[(6-bromo-1,3-benzodioxol-5-yl)thio]-3H-purin-3-yl}ethyl)piperidine-1,2-dicarboxylate] was tested. Which “% Inhibition at 5 μM Compound Concentration” value (“% Inhibition” below) did it give?
Its value is 0%.

Which “% Inhibition” value does the source give for `CC(C)[C@@H]1C[C@H](CCn2cnc(N)c3nc(Sc4cc5c(cc4Br)OCO5)nc2-3)CCN1C(=O)OC(C)(C)C` (relative stereo) [Example 430, tert-Butyl cis-4-(2-{6-amino-8-[(6-bromo-1,3-benzodioxol-5-yl)thio]-3H-purin-3-yl}ethyl)-2-isopropylpiperidine-1-carboxylate] here?
Its value is 15%.

For `CCOC(=O)[C@@H]1C[C@H](CCn2cnc(N)c3nc(Sc4cc5c(cc4Br)OCO5)nc2-3)CCN1` (relative stereo) [Example 482, Ethyl cis-4-(2-{6-amino-8-[(6-bromo-1,3-benzodioxol-5-yl)thio]-3 H-purin-3-yl}ethyl)piperidine-2-carboxylate], which “% Inhibition” value is on record?
The value was 0.0%.

With `COc1ccc(OC)c(Sc2nc3c(N)ncnc3n2CCCc2ccccc2)c1` [Example 3, 8-(2,5-Dimethoxy-phenylsulfanyl)-9-(3-phenyl-propyl)-9H-purin-6-ylamine] as the molecule, how does the “% Inhibition” value read?
The value was 36%.

With `Nc1ncnc2c1nc(Sc1ccc3c(c1)OCO3)n2CCc1ccccc1` [Example 4, 8-(Benzo[1,3]dioxol-5-ylsulfanyl)-9-phenethyl-9H-purin-6-ylamine] as the molecule, how does the “% Inhibition” value read?
The value was 75%.

How did the “% Inhibition” value turn out when `Nc1ncn(CCc2ccccc2)c2nc(Sc3ccc4c(c3)OCO4)nc1-2` [Example 5, 8-(benzo[1,3]dioxol-5-ylsulfanyl)-3-phenethyl-3H-purin-6-ylamine] was run?
Its value is 8%.

`Nc1ncnc2c1nc(Sc1ccc3c(c1)OCO3)n2CCCc1ccccc1` [Example 6, 8-(Benzo[1,3]dioxol-5-ylsulfanyl)-9-(3-phenyl-propyl)-9H-purin-6-ylamine] was tested. Which “% Inhibition” value did it give?
Its value is 66%.

How did the “% Inhibition” value turn out when `Nc1ncnc2c1nc(Sc1ccc3c(c1)OCO3)n2CCc1ccc([N+](=O)[O-])cc1` [Example 7, 8-(Benzo[1,3]dioxol-5-ylsulfanyl)-9-[2-(4-nitro-phenyl)-ethyl]-9H-purin-6-ylamine] was run?
The value was 22%.

For `COc1ccc(Sc2nc3c(N)ncn(CCc4ccccc4)c-3n2)c(OC)c1` [Example 16, 8-(2,4-dimethoxy-phenylsulfanyl)-3-phenethyl-3H-purin-6-ylamine], which “% Inhibition” value is on record?
The value was 6%.

Which “% Inhibition” value does the source give for `Nc1ncn(CCc2ccccc2)c2nc(Sc3ccc(Cl)cc3)nc1-2` [Example 18, 8-(4-chloro-phenylsulfanyl)-3-phenethyl-3H-purin-6-ylamine] here?
Its value is 0%.

For `N#Cc1ccc(Sc2nc3c(N)ncn(CCc4ccccc4)c-3n2)cc1` [Example 20, 4-(6-amino-3-phenethyl-3H-purin-8-ylsulfanyl)-benzonitrile], which “% Inhibition” value is on record?
The value was 0%.

Same assay, conditions: BODIPY-GM 10 nM, Hsp90 30 nM

Which IC50 does the source give for `CCOC(=O)[C@@H]1C[C@H](CCn2c(Sc3cc4c(cc3Br)OCO4)nc3c(N)ncnc32)CCN1C(=O)OC(C)(C)C` (relative stereo) [Example 422, 1-tert-Butyl 2-ethyl cis-4-(2-{6-amino-8-[(6-bromo-1,3-benzodioxol-5-yl)thio]-9H-purin-9-yl}ethyl)piperidine-1,2-dicarboxylate] here?
The IC50 was > 3 µM.

How did the IC50 turn out when `CC(C)[C@H]1C[C@H](CCn2c(Sc3cc4c(cc3Br)OCO4)nc3c(N)ncnc32)CCN1C(=O)OC(C)(C)C` (relative stereo) [Example 428, tert-Butyl trans-4-(2-{6-amino-8-[(6-bromo-1,3-benzodioxol-5-yl)thio]-9H-purin-9-yl}ethyl)-2-isopropylpiperidine-1-carboxylate] was run?
Its IC50 is > 8 µM.

Which IC50 does the source give for `CC(C)[C@@H]1C[C@H](CCn2c(Sc3cc4c(cc3Br)OCO4)nc3c(N)ncnc32)CCN1C(=O)OC(C)(C)C` (relative stereo) [Example 429, tert-Butyl cis-4-(2-{6-amino-8-[(6-bromo-1,3-benzodioxol-5-yl)thio]-9H-purin-9-yl}ethyl)-2-isopropylpiperidine-1-carboxylate] here?
Its IC50 is 3.8 µM.

Which IC50 does the source give for `CC(C)[C@H]1C[C@H](CCn2c(Sc3cc4c(cc3Br)OCO4)nc3c(N)ncnc32)CCN1` (relative stereo) [Example 479, 8-[(6-bromo-1,3-benzodioxol-5-yl)thio]-9-{2-[trans-2-isopropylpiperidin-4-yl]ethyl}-9 H-purin-6-amine] here?
Its IC50 is 0.199 µM.

With `CC(C)[C@@H]1C[C@H](CCn2c(Sc3cc4c(cc3Br)OCO4)nc3c(N)ncnc32)CCN1` (relative stereo) [Example 480, 8-[(6-bromo-1,3-benzodioxol-5-yl)thio]-9-{2-[cis-2-isopropylpiperidin-4-yl]ethyl}-9 H-purin-6-amine] as the molecule, how does the IC50 read?
The IC50 was 0.16 µM.

How did the IC50 turn out when `COc1ccc(OC)c(Sc2nc3c(N)ncnc3n2CCc2ccccc2)c1` [Example 1, 8-(2,5-Dimethoxy-phenylsulfanyl)-9-phenethyl-9H-purin-6-ylamine] was run?
Its IC50 is 0.34 µM.

How did the IC50 turn out when `COc1ccc(OC)c(Sc2nc3c(N)ncn(CCc4ccccc4)c-3n2)c1` [Example 2, 8-(2,5-dimethoxy-phenylsulfanyl)-3-phenethyl-3H-purin-6-ylamine] was run?
The IC50 was 3.47 µM.

For `Nc1ncnc2c1nc(Sc1ccc3c(c1)OCO3)n2CCc1ccccc1` [Example 4, 8-(Benzo[1,3]dioxol-5-ylsulfanyl)-9-phenethyl-9H-purin-6-ylamine], which IC50 is on record?
The IC50 was 0.65 µM.

With `Nc1ncnc2c1nc(Sc1ccc3c(c1)OCO3)n2CCCc1ccccc1` [Example 6, 8-(Benzo[1,3]dioxol-5-ylsulfanyl)-9-(3-phenyl-propyl)-9H-purin-6-ylamine] as the molecule, how does the IC50 read?
The IC50 was 1.06 µM.

How did the IC50 turn out when `COc1ccc(OC)c(Sc2nc3c(N)ncnc3n2CCc2ccc([N+](=O)[O-])cc2)c1` [Example 8, 8-(2,5-Dimethoxy-phenylsulfanyl)-9-[2-(4-nitro-phenyl)-ethyl]-9H-purin-6-ylamine] was run?
The IC50 was 18 µM.

Which IC50 does the source give for `COc1ccc(OC)c(Sc2nc3c(N)ncnc3n2CCc2ccc(F)cc2)c1` [Example 9, 8-(2,5-Dimethoxy-phenylsulfanyl)-9-[2-(4-fluoro-phenyl)-ethyl]-9H-purin-6-ylamine] here?
Its IC50 is 1 µM.

Which IC50 does the source give for `COc1ccc(OC)c(Sc2nc3c(N)ncn(CCc4ccc(F)cc4)c-3n2)c1` [Example 10, 8-(2,5-dimethoxy-phenylsulfanyl)-3-[2-(4-fluoro-phenyl)-ethyl]-3H-purin-6-ylamine] here?
The IC50 was > 50 µM.

How did the IC50 turn out when `Nc1ncnc2c1nc(Sc1ccc3c(c1)OCO3)n2CCc1ccc(F)cc1` [Example 11, 8-(Benzo[1,3]dioxol-5-ylsulfanyl)-9-[2-(4-fluoro-phenyl)-ethyl]-9H-purin-6-ylamine] was run?
The IC50 was 0.6 µM.

With `Nc1ncn(CCc2ccc(F)cc2)c2nc(Sc3ccc4c(c3)OCO4)nc1-2` [Example 12, 8-(benzo[1,3]dioxol-5-ylsulfanyl)-3-[2-(4-fluoro-phenyl)-ethyl]-3H-purin-6-ylamine] as the molecule, how does the IC50 read?
Its IC50 is > 10 µM.

With `Nc1ncnc2c1nc(Sc1cc3c(cc1Br)OCO3)n2CCc1ccccc1` [Example 13, 8-(6-Bromo-benzo[1,3]dioxol-5-ylsulfanyl)-9-phenethyl-9H-purin-6-ylamine] as the molecule, how does the IC50 read?
The IC50 was 0.045 µM.

Which IC50 does the source give for `Nc1ncn(CCc2ccccc2)c2nc(Sc3cc4c(cc3Br)OCO4)nc1-2` [Example 14, 8-(6-bromo-benzo[1,3]dioxol-5-ylsulfanyl)-3-phenethyl-3H-purin-6-ylamine] here?
The IC50 was 5 µM.

With `COc1ccc(Sc2nc3c(N)ncnc3n2CCc2ccccc2)c(OC)c1` [Example 15, 8-(2,4-Dimethoxy-phenylsulfanyl)-9-phenethyl-9H-purin-6-ylamine] as the molecule, how does the IC50 read?
Its IC50 is 6.5 µM.

With `Nc1ncnc2c1nc(S(=O)(=O)c1ccc(Cl)cc1)n2CCc1ccccc1` [Example 17, 8-(4-Chloro-phenylsulfonyl)-9-phenethyl-9H-purin-6-ylamine] as the molecule, how does the IC50 read?
The IC50 was > 10 µM.

How did the IC50 turn out when `N#Cc1ccc(Sc2nc3c(N)ncnc3n2CCc2ccccc2)cc1` [Example 19, 4-(6-Amino-9-phenethyl-9H-purin-8-ylsulfanyl)-benzonitrile] was run?
Its IC50 is > 10 µM.

For `N#Cc1ccc(Sc2nc3c(N)ncn(CCc4ccccc4)c-3n2)cc1` [Example 20, 4-(6-amino-3-phenethyl-3H-purin-8-ylsulfanyl)-benzonitrile], which IC50 is on record?
Its IC50 is > 10 µM.

`COc1ccc(OC)c(Sc2nc3c(N)ncnc3n2CCc2ccc(OC)c(OC)c2)c1` [Example 21, 9-[2-(3,4-Dimethoxy-phenyl)-ethyl]-8-(2,5-dimethoxy-phenylsulfanyl)-9H-purin-6-ylamine] was tested. Which IC50 did it give?
The IC50 was > 10 µM.

For `COc1ccc(OC)c(Sc2nc3c(N)ncn(CCc4ccc(OC)c(OC)c4)c-3n2)c1` [Example 22, 3-[2-(3,4-dimethoxy-phenyl)-ethyl]-8-(2,5-dimethoxy-phenylsulfanyl)-3H-purin-6-ylamine], which IC50 is on record?
The IC50 was > 10 µM.

For `COc1ccc(OC)c(Sc2nc3c(N)ncnc3n2CCc2ccc(C)cc2)c1` [Example 23, 8-(2,5-Dimethoxy-phenylsulfanyl)-9-(2-p-tolyl-ethyl)-9H-purin-6-ylamine], which IC50 is on record?
The IC50 was > 10 µM.

How did the IC50 turn out when `COc1ccc(OC)c(Sc2nc3c(N)ncn(CCc4ccc(C)cc4)c-3n2)c1` [Example 24, 8-(2,5-dimethoxy-phenylsulfanyl)-3-(2-p-tolyl-ethyl)-3H-purin-6-ylamine] was run?
Its IC50 is > 10 µM.

`COc1ccc(OC)c(Sc2nc3c(N)ncnc3n2CCc2ccccc2Cl)c1` [Example 25, 9-[2-(2-Chloro-phenyl)-ethyl]-8-(2,5-dimethoxy-phenylsulfanyl)-9H-purin-6-ylamine] was tested. Which IC50 did it give?
The IC50 was 0.041 µM.

For `COc1ccc(OC)c(Sc2nc3c(N)ncn(CCc4ccccc4Cl)c-3n2)c1` [Example 26, 3-[2-(2-chloro-phenyl)-ethyl]-8-(2,5-dimethoxy-phenylsulfanyl)-3H-purin-6-ylamine], which IC50 is on record?
Its IC50 is > 10 µM.

For `COc1ccc(OC)c(Sc2nc3c(N)ncnc3n2CCc2ccc(Cl)cc2Cl)c1` [Example 27, 9-[2-(2,4-Dichloro-phenyl)-ethyl]-8-(2,5-dimethoxy-phenylsulfanyl)-9H-purin-6-ylamine], which IC50 is on record?
The IC50 was > 10 µM.
